#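 Tested at 5 concentrations; 48 h exposure; 96-well plates; endpoints linearly interpolated, else capped at highest concentration. GI50 is the concentration that inhibits growth by half. The concentration for full growth arrest is given as TGI.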
# How the values were obtained:
# Test in all cases: DTP human tumour cell line panel, 48 h
# [1] = tested on: SF-295 CNS
# [2] = tested on: COLO 205 colon
# [3] = tested on: HL-60(TB) leukemia
# [4] = tested on: OVCAR-4 ovarian
# [5] = tested on: SK-MEL-2 melanoma
# [6] = tested on: NCI-H460 lung
# [7] = tested on: OVCAR-3 ovarian
# [8] = tested on: KM12 colon
# [9] = tested on: NCI-H226 lung
# [10] = tested on: UO-31 renal
# [11] = tested on: K-562 leukemia
# [12] = tested on: A498 renal
# [13] = tested on: U251 CNS
# [14] = tested on: NCI-H522 lung
# [15] = tested on: 786-0 renal
# [16] = tested on: HS 578T breast
# [17] = tested on: CCRF-CEM leukemia
# [18] = tested on: TK-10 renal
# [19] = tested on: NCI/ADR-RES ovarian
# [20] = tested on: MCF7 breast
# [21] = tested on: SF-539 CNS
# [22] = tested on: DU-145 prostate
# [23] = tested on: HCT-15 colon
# [24] = tested on: LOX IMVI melanoma
# [25] = tested on: PC-3 prostate
# [26] = tested on: RXF 393 renal
# [27] = tested on: IGROV1 ovarian
# [28] = tested on: UACC-62 melanoma
# [29] = tested on: SN12C renal
# [30] = tested on: UACC-257 melanoma
# [31] = tested on: MDA-MB-231 breast
# [32] = tested on: M14 melanoma
# [33] = tested on: MDA-MB-435
# [34] = tested on: BT-549 breast
# [35] = tested on: EKVX NSCLC
# [36] = tested on: A549 NSCLC
# [37] = tested on: ACHN renal
# [38] = tested on: HOP-62 NSCLC
# [39] = tested on: SW-620 colon
# [40] = tested on: OVCAR-8 ovarian
# [41] = tested on: SK-MEL-5 melanoma
# [42] = tested on: HT29 colon
# [43] = tested on: HCT-116 colon
# [44] = tested on: SNB-19 CNS
# [45] = tested on: SF-268 CNS
# [46] = tested on: SR leukemia
# [47] = tested on: HCC-2998 colon
# [48] = tested on: CAKI-1 renal
# [49] = tested on: T-47D breast
# [50] = tested on: SK-MEL-28 melanoma
# [51] = tested on: SK-OV-3 ovarian
# [52] = tested on: MOLT-4 leukemia
# [53] = tested on: OVCAR-5 ovarian
# [54] = tested on: RPMI-8226 leukemia
# [55] = tested on: SNB-75 CNS
# [56] = tested on: NCI-H23 lung
structure (smiles),measurement,setting,value
CC(C)(O)/C=C/C(=O)[C@](C)(O)[C@H]1[C@H](O)C[C@@]2(C)[C@H]3CC=C4[C@@H](C[C@H](O)C(=O)C4(C)C)[C@]3(C)C(=O)C[C@]12C,GI50,[1],102 nM
same,TGI,[1],872 nM
same,GI50,[2],27.7 nM
same,TGI,[2],> 16700 nM
same,GI50,[3],203 nM
same,TGI,[3],1460 nM
same,GI50,[4],5.58 nM
same,TGI,[4],45.1 nM
same,GI50,[5],16.2 nM
same,TGI,[5],52.5 nM
same,GI50,[6],24.7 nM
same,TGI,[6],> 16700 nM
same,GI50,[7],39.5 nM
same,TGI,[7],1020 nM
same,GI50,[8],113 nM
same,TGI,[8],> 16700 nM
same,GI50,[9],29.6 nM
same,TGI,[9],4660 nM
same,GI50,[10],43.2 nM
same,TGI,[10],312 nM
same,GI50,[11],39.4 nM
same,TGI,[11],> 16700 nM
same,GI50,[12],17.7 nM
same,TGI,[12],47.3 nM
same,GI50,[13],54.1 nM
same,TGI,[13],262 nM
same,GI50,[14],28.7 nM
same,TGI,[14],184 nM
same,GI50,[15],51.1 nM
same,TGI,[15],249 nM
same,GI50,[16],52.9 nM
same,TGI,[16],2730 nM
same,GI50,[17],20.8 nM
same,TGI,[17],> 8450 nM
same,GI50,[18],30.7 nM
same,TGI,[18],89.5 nM
same,GI50,[19],71.4 nM
same,GI50,[20],31.5 nM
same,TGI,[20],> 16700 nM
same,GI50,[21],16.7 nM
same,TGI,[21],130 nM
same,GI50,[22],36.7 nM
same,TGI,[22],4300 nM
same,GI50,[23],34.4 nM
same,TGI,[23],> 16700 nM
same,GI50,[24],180 nM
same,TGI,[24],> 3520 nM
same,GI50,[25],283 nM
same,TGI,[25],> 16700 nM
same,GI50,[26],14.3 nM
same,TGI,[26],31.8 nM
same,GI50,[27],70.7 nM
same,TGI,[27],460 nM
same,GI50,[28],26.3 nM
same,TGI,[28],3720 nM
same,GI50,[29],46.6 nM
same,TGI,[29],> 12900 nM
same,GI50,[30],42 nM
same,TGI,[30],541 nM
same,GI50,[31],28.1 nM
same,TGI,[31],307 nM
same,GI50,[32],17.6 nM
same,TGI,[32],1710 nM
same,GI50,[33],22 nM
same,TGI,[33],5770 nM
same,GI50,[34],16.1 nM
same,TGI,[34],54.6 nM
same,GI50,[35],45.8 nM
same,TGI,[35],> 16700 nM
same,GI50,[36],51.1 nM
same,TGI,[36],> 16700 nM
same,GI50,[37],53.7 nM
same,TGI,[37],> 16700 nM
same,GI50,[38],81.8 nM
same,TGI,[38],419 nM
same,GI50,[39],28.1 nM
same,TGI,[39],> 16700 nM
same,GI50,[40],496 nM
same,TGI,[40],> 16700 nM
same,GI50,[41],58 nM
same,TGI,[41],2310 nM
same,GI50,[42],25.8 nM
same,TGI,[42],> 16700 nM
same,GI50,[43],24.3 nM
same,TGI,[43],7140 nM
same,GI50,[44],75.2 nM
same,TGI,[44],3250 nM
same,GI50,[45],19.6 nM
same,TGI,[45],88.2 nM
same,GI50,[46],41.4 nM
same,TGI,[46],> 16700 nM
same,GI50,[47],118 nM
same,TGI,[47],> 16700 nM
same,GI50,[48],13.7 nM
same,TGI,[48],49.9 nM
same,GI50,[49],217 nM
same,TGI,[49],> 14000 nM
same,GI50,[50],13.9 nM
same,TGI,[50],39.3 nM
same,GI50,[51],56 nM
same,TGI,[51],236 nM
same,GI50,[52],1170 nM
same,TGI,[52],16300 nM
same,GI50,[53],42.9 nM
same,TGI,[53],> 16700 nM
same,GI50,[54],41.9 nM
same,TGI,[54],> 6220 nM
same,GI50,[55],28.9 nM
same,TGI,[55],108 nM
same,GI50,[56],450 nM
same,TGI,[56],> 16700 nM
